# Source: ChEMBL document CHEMBL5532680, “Identification of a Sonically Activated Degrader of Methionine Adenosyltransferase 2A by an in Silico Approach Assisted with the Hole-Electron Analysis” (J Med Chem, 2024)
# Active and inactive are the calls of the source. The calls are words filed in the database; no cut-off is given here.
# Tests used:
# [1] = Induction of ROS generation in PBS at 10 uM incubated for 10 mins under 1.0 MHz, 1.2W/cm2 ultrasound treatment by DCFH staining based fluorescence assay; assay type: functional
# [2] = system: HCT-116; test: Induction of apoptosis in MTAP knocked out human HCT-116 cells at 0.1 uM preincubated for 24 hrs followed by sonication for 4 mins by annexin V-FITC/PI staining based flow cytometry analysis relative to control; assay type: functional, cell-based; conditions: time 1444.0 min
SMILES,Activity [1],Activity [2]
CCOc1ncc2cc(-c3ccc4c(c3)OCC3(CCN(C)CC3)O4)c(=O)n(-c3ccc(OC(F)F)cc3)c2n1,Active,
CCOc1ncc2cc(-c3ccc4nc5n(c4c3)CCN(C)C5)c(=O)n(-c3ccc(OC(F)F)cc3)c2n1,inactive,Active
CCOc1ncc2cc(-c3ccc4c(c3)C3(CC3)CO4)c(=O)n(-c3ccc(OC(F)F)cc3)c2n1,Active,
CCOc1ncc2cc(-c3ccc4nc5n(c4c3)CCN(C(C)=O)C5)c(=O)n(-c3ccc(OC(F)F)cc3)c2n1,inactive,
